Experimental data: patent US9354230B2, “Methods and apparatus for conducting multiple measurements on a sample” (MESO SCALE TECHNOLOGIES, LLC., priority 2001, dated 2016)

Key:
[1] = target: T1, HIV Reverse Transcriptase (RT) RNAse H activity (Human immunodeficiency virus type 1 group M subtype B, UniProt P04585); assay: ECL assay of HIV RT RNAse H activity in one well of an MDMW Plate; format: biochemical; conditions: 125 uM; data not shown
T1 construct: HIV Reverse Transcriptase (RT), an enzyme with both a RNA-dependent DNA polymerase (RDDP) activity and an RNAse H activity

[2] = target: T2, HIV Reverse Transcriptase (RT) RNA-dependent DNA polymerase (RDDP) activity (Human immunodeficiency virus type 1 group M subtype B, UniProt P04585); assay: ECL assay of HIV RT RDDP activity in one well of an MDMW Plate; format: biochemical; conditions: 125 uM; data not shown
T2 construct: HIV Reverse Transcriptase (RT), an enzyme with both a RNA-dependent DNA polymerase (RDDP) activity and an RNAse H activity

## Nc1ccn([C@H]2CC[C@@H](COP(=O)(O)OP(=O)(O)OP(=O)(O)O)O2)c(=O)n1 [ddCTP]
[1]
  effect on RNAse H activity: no effect
[2]
  inhibition of RDDP activity: completely inhibited
